{
  "source": "ChEMBL document CHEMBL1201862",
  "about": "“PubChem BioAssay data set” (2004)",
  "experiment_in_all_cases": "DTP human tumour cell line panel, 48 h",
  "key": {"A549": {"system": "A549"}, "CAKI-1": {"system": "CAKI-1"}, "CCRF-CEM": {"system": "CCRF-CEM"}, "EKVX": {"system": "EKVX"}, "HCT-116": {"system": "HCT-116"}, "HCT-15": {"system": "HCT-15"}, "HOP-92": {"system": "HOP-92"}, "HT-29": {"system": "HT-29"}, "IGROV-1": {"system": "IGROV-1"}, "K562": {"system": "K562"}, "M14": {"system": "M14"}, "MOLT-4": {"system": "MOLT-4"}, "NCI-H226": {"system": "NCI-H226"}, "OVCAR-3": {"system": "OVCAR-3"}, "OVCAR-4": {"system": "OVCAR-4"}, "OVCAR-5": {"system": "OVCAR-5"}, "SF-295": {"system": "SF-295"}, "SK-MEL-28": {"system": "SK-MEL-28"}, "UACC-62": {"system": "UACC-62"}, "UO-31": {"system": "UO-31"}},
  "note": "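Values below derive from 48-hour exposures of cells grown in 96-well plates, with endpoints linearly interpolated between the two concentrations bracketing the appropriate inhibition level. Here, GI50 denotes the concentration required for 50% inhibition of growth.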 Activity calls are given as the source filed them. Cut-off read from the data, not from the text of the source: active = GI50 up to about 1.1 µM and inactive = higher.",
  "data": [
    {"smiles": "COc1ccc2nc(C(=O)c3ccccc3)c(C)cc2c1", "values": [
      {"measurement": "GI50", "setting": "A549", "result": "6.28 µM (inactive)"},
      {"measurement": "GI50", "setting": "CAKI-1", "result": "7.91 µM (inactive)"},
      {"measurement": "GI50", "setting": "CCRF-CEM", "result": "4.2 µM (inactive)"},
      {"measurement": "GI50", "setting": "EKVX", "result": "5.26 µM (inactive)"},
      {"measurement": "GI50", "setting": "HCT-116", "result": "4.63 µM (inactive)"},
      {"measurement": "GI50", "setting": "HCT-15", "result": 3.3, "unit": "µM"},
      {"measurement": "GI50", "setting": "HOP-92", "result": "7.13 µM (inactive)"},
      {"measurement": "GI50", "setting": "HT-29", "result": "3.59 µM (inactive)"},
      {"measurement": "GI50", "setting": "IGROV-1", "result": "> 29.2 µM (inactive)"},
      {"measurement": "GI50", "setting": "K562", "result": "0.859 µM (active)"},
      {"measurement": "GI50", "setting": "M14", "result": "3.74 µM (inactive)"},
      {"measurement": "GI50", "setting": "MOLT-4", "result": "5.02 µM (inactive)"},
      {"measurement": "GI50", "setting": "NCI-H226", "result": "23.9 µM (inactive)"},
      {"measurement": "GI50", "setting": "OVCAR-3", "result": "10.3 µM (inactive)"},
      {"measurement": "GI50", "setting": "OVCAR-4", "result": "97.1 µM (inactive)"},
      {"measurement": "GI50", "setting": "OVCAR-5", "result": "33.9 µM (inactive)"},
      {"measurement": "GI50", "setting": "SF-295", "result": "2.81 µM (inactive)"},
      {"measurement": "GI50", "setting": "SK-MEL-28", "result": "3.91 µM (inactive)"},
      {"measurement": "GI50", "setting": "UACC-62", "result": "5.26 µM (inactive)"},
      {"measurement": "GI50", "setting": "UO-31", "result": "12.9 µM (inactive)"}
    ]},
    {"smiles": "CC(=O)NNc1nc(C)c(C(=O)NNC(=O)C(=O)Nc2nc3ccc([N+](=O)[O-])cc3s2)s1", "values": [
      {"measurement": "GI50", "setting": "A549", "result": "67.1 µM (inactive)"},
      {"measurement": "GI50", "setting": "CAKI-1", "result": "30.5 µM (inactive)"},
      {"measurement": "GI50", "setting": "CCRF-CEM", "result": "22 µM (inactive)"},
      {"measurement": "GI50", "setting": "EKVX", "result": "30.7 µM (inactive)"},
      {"measurement": "GI50", "setting": "HCT-116", "result": "> 62.5 µM (inactive)"},
      {"measurement": "GI50", "setting": "HCT-15", "result": "> 68.1", "unit": "µM"},
      {"measurement": "GI50", "setting": "HOP-92", "result": "28.8 µM (inactive)"},
      {"measurement": "GI50", "setting": "HT-29", "result": "54.7 µM (inactive)"},
      {"measurement": "GI50", "setting": "IGROV-1", "result": "36.9 µM (inactive)"},
      {"measurement": "GI50", "setting": "K562", "result": "25 µM (inactive)"},
      {"measurement": "GI50", "setting": "M14", "result": "> 67.8 µM (inactive)"},
      {"measurement": "GI50", "setting": "MOLT-4", "result": "28.8 µM (inactive)"},
      {"measurement": "GI50", "setting": "NCI-H226", "result": "80 µM (inactive)"},
      {"measurement": "GI50", "setting": "OVCAR-3", "result": "15.3 µM (inactive)"},
      {"measurement": "GI50", "setting": "OVCAR-4", "result": "46.7 µM (inactive)"},
      {"measurement": "GI50", "setting": "OVCAR-5", "result": "82.8 µM (inactive)"},
      {"measurement": "GI50", "setting": "SF-295", "result": "60.8 µM (inactive)"},
      {"measurement": "GI50", "setting": "SK-MEL-28", "result": "65.2 µM (inactive)"},
      {"measurement": "GI50", "setting": "UACC-62", "result": "51.6 µM (inactive)"},
      {"measurement": "GI50", "setting": "UO-31", "result": "33.2 µM (inactive)"}
    ]},
    {"smiles": "N#CC(C#N)=Cc1c[nH]c(=O)[nH]c1=O", "values": [
      {"measurement": "GI50", "setting": "A549", "result": "> 100 µM (inactive)"},
      {"measurement": "GI50", "setting": "CAKI-1", "result": "> 100 µM (inactive)"},
      {"measurement": "GI50", "setting": "CCRF-CEM", "result": "17.8 µM (inactive)"},
      {"measurement": "GI50", "setting": "EKVX", "result": "> 100 µM (inactive)"},
      {"measurement": "GI50", "setting": "HCT-116", "result": "> 100 µM (inactive)"},
      {"measurement": "GI50", "setting": "HCT-15", "result": "> 100", "unit": "µM"},
      {"measurement": "GI50", "setting": "HOP-92", "result": "> 100 µM (inactive)"},
      {"measurement": "GI50", "setting": "HT-29", "result": "> 100 µM (inactive)"},
      {"measurement": "GI50", "setting": "IGROV-1", "result": "> 100 µM (inactive)"},
      {"measurement": "GI50", "setting": "K562", "result": "> 100 µM (inactive)"},
      {"measurement": "GI50", "setting": "M14", "result": "> 100 µM (inactive)"},
      {"measurement": "GI50", "setting": "MOLT-4", "result": "43.1 µM (inactive)"},
      {"measurement": "GI50", "setting": "NCI-H226", "result": "> 100 µM (inactive)"},
      {"measurement": "GI50", "setting": "OVCAR-3", "result": "> 100 µM (inactive)"},
      {"measurement": "GI50", "setting": "OVCAR-4", "result": "> 100 µM (inactive)"},
      {"measurement": "GI50", "setting": "OVCAR-5", "result": "> 100 µM (inactive)"},
      {"measurement": "GI50", "setting": "SF-295", "result": "> 100 µM (inactive)"},
      {"measurement": "GI50", "setting": "SK-MEL-28", "result": "> 100 µM (inactive)"},
      {"measurement": "GI50", "setting": "UACC-62", "result": "> 100 µM (inactive)"},
      {"measurement": "GI50", "setting": "UO-31", "result": "> 100 µM (inactive)"}
    ]},
    {"smiles": "CS(=O)(=O)OCCCCOS(=O)(=O)CF", "values": [
      {"measurement": "GI50", "setting": "A549", "result": "> 100 µM (inactive)"},
      {"measurement": "GI50", "setting": "CAKI-1", "result": "> 72.1 µM (inactive)"},
      {"measurement": "GI50", "setting": "CCRF-CEM", "result": "52.4 µM (inactive)"},
      {"measurement": "GI50", "setting": "EKVX", "result": "> 100 µM (inactive)"},
      {"measurement": "GI50", "setting": "HCT-116", "result": "> 100 µM (inactive)"},
      {"measurement": "GI50", "setting": "HCT-15", "result": "> 100", "unit": "µM"},
      {"measurement": "GI50", "setting": "HOP-92", "result": "> 49.5 µM (inactive)"},
      {"measurement": "GI50", "setting": "HT-29", "result": "> 100 µM (inactive)"},
      {"measurement": "GI50", "setting": "IGROV-1", "result": "> 91.4 µM (inactive)"},
      {"measurement": "GI50", "setting": "K562", "result": "> 100 µM (inactive)"},
      {"measurement": "GI50", "setting": "M14", "result": "> 100 µM (inactive)"},
      {"measurement": "GI50", "setting": "MOLT-4", "result": "32.9 µM (inactive)"},
      {"measurement": "GI50", "setting": "NCI-H226", "result": "> 100 µM (inactive)"},
      {"measurement": "GI50", "setting": "OVCAR-3", "result": "> 100 µM (inactive)"},
      {"measurement": "GI50", "setting": "OVCAR-4", "result": "> 100 µM (inactive)"},
      {"measurement": "GI50", "setting": "OVCAR-5", "result": "> 100 µM (inactive)"},
      {"measurement": "GI50", "setting": "SF-295", "result": "> 100 µM (inactive)"},
      {"measurement": "GI50", "setting": "SK-MEL-28", "result": "> 100 µM (inactive)"},
      {"measurement": "GI50", "setting": "UACC-62", "result": "> 100 µM (inactive)"},
      {"measurement": "GI50", "setting": "UO-31", "result": "> 100 µM (inactive)"}
    ]}
  ]
}
